Consider 22 molecules from patent US10870660B2, “Nitrogen-containing condensed ring compounds having dopamine D3 antagonistic effect” (Shionogi & Co., Ltd., priority 2016, dated 2020).

For assay [1], the target named is human recombinant dopamine D3 receptor (Homo sapiens (Human), UniProt P35462). The assay can be described thus: Test of binding inhibition for the human dopamine D3 receptor ([3H]-Metylspiperone SPA binding). To be noted: [3H]-Metylspiperone 2 nM, Jump-In HEK cell membranes, read-out: hD3_Ki. On the procedure: Cell membranes: Jump-In HEK cell membranes expressing human recombinant dopamine D3 receptor (4 μg/well)
human recombinant dopamine D3 receptor, sequence (P35462 whole entry): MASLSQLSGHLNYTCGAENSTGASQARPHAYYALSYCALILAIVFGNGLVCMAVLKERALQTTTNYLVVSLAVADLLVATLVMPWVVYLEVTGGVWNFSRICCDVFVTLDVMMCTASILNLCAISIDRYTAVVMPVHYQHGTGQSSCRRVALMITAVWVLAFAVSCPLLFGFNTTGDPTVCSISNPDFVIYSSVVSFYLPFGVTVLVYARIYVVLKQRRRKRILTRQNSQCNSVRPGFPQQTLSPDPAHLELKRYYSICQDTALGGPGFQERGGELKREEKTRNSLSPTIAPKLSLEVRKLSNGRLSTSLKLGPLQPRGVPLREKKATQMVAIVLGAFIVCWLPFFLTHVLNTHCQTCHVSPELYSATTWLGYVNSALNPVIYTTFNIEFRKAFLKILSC
(§1) Non-specific ligand: (final concentration) 10 μM Butaclamol [(+)-Butaclamol Hydrochioride, D033, Sigma]
(§2) SPA beads: SPA beads [WGA PVT SPA Scintillatiion Beads, RPNQ0001 (500 mg), RPNQ0060 (2 g), PerkinElmer] (0.2 mg/well)
(§3) Incubation time and temperature: 120 min at 25° C.
(§4) Butaclamol or the compounds of the present invention were weighed and DMSO was added to make a 10 mM solution. This solution was diluted to each concentration.
[^3H]-Metylspiperone was weighed and the buffer solution was added to make a 6 nM solution.
(§5) SPA beads were weighed and stirred in water to make a 50 mg/mL solution. Using this solution, a mixed solution with the cell membranes was prepared.
Jump-In HEK Cell membranes (final reaction amount: 4 μg/well), SPA beads (final reaction amount: 0.2 mg/well) and Tris-HCl buffer were mixed and the mixed solution was left still for more than 60 min at 4° C. Then, 50 μL of the mixture was added to each well of the plate. In addition, 25 μL of 6 nM [^3H]-Metylspiperone (final concentration: 2 nM) was added to each well. […] Non-specific binding was calculated based on the radioactivity of [^3H]-Metylspiperone in the presence of 10 μM non-labeled Butaclamol. The total binding was calculated based on the radioactivity of [^3H]-Metylspiperone in the absence of the compounds of the present invention (Vehicle). The Ki values were calculated from dose-response curves.
(§6) Binding activities of the compounds of the present invention were calculated from the following Binding Inhibition Rate (%): Inhibition Rate (%)=[1−(c−a)(b−a)]×100(%) • a: Average cpm of non-specific binding • b: Average cpm of total binding • c: Cpm in the presence of each test compound

Assay [2] concerns the target human recombinant dopamine D2 receptor (Homo sapiens (Human), UniProt P14416). The assay can be described thus: Test of binding inhibition for the human dopamine D2 receptor ([3H]-Metylspiperone SPA binding). Particulars: [3H]-Metylspiperone 1.2 nM, Jump-In HEK cell membranes, read-out: hD2_Ki. The protocol:
Cell membranes: Jump-In HEK cell membranes expressing human recombinant dopamine D2 receptor (2 μg/well)
Buffer solution: 50 mM Tris-HCl (35409-45, Nacalai Tesque) (pH 7.4) containing 120 mM NaCl (31320-05, Nacalai Tesque), 1 mM MgCl2.6H2O (20909-55, Nacalai Tesque), 5 mM KCl (28514-75, Nacalai Tesque) and 2 mM CaCl2 (067-31, Nacalai Chemical, Ltd)
Radioligand: (final concentration) 1.2 nM [^3H]-Metylspiperone ([^3H—N-methyl-]-Metylspiperone, NET-856, 83.8 Ci/mmol, PerkinElmer)
as §1, §2, §3, §4
[^3H]-Metylspiperone was weighed and the buffer solution was added to make a 3.6 nM solution.
as §5
225 nL of the solutions of the non-specific ligand or the compounds of the present invention at each concentration (in case of vehicle, final concentration 0.3% DMSO) were added in each well of a 384-well white/clear bottom microplate (3706, Corning). Jump-In HEK Cell membranes (final reaction amount: 2 μg protein/well), SPA beads (final reaction amount: 0.2 mg/well) and the buffer were mixed and the mixed solution was left still for more than or equal to 1 h at 4° C. Then, 50 μL of the mixture was added to each well of the plate. In addition, 25 μL of 3.6 nM [^3H]-Metylspiperone (final concentration: 1.2 nM) was added to each well. The plate was sealed by putting TopSeal-A 96/384 well (6050185, PerkinElmer) on the top of the plate, mixed using stirring deaerator (Welltornado, FK-62, Sakaki) and incubated for 120 min at 25° C. After incubation, the radioactivity of [^3H]-Metylspiperone which was binded to D2 receptor was determined by liquid scintillation counter (1450 Microbeta, PerkinElmer) in each well. Non-specific binding was calculated based on the radioactivity of [^3H]-Metylspiperone in the presence of 10 μM non-labeled Butaclamol. The total binding was calculated using the radioactivity of [^3H]-Metylspiperone in the absence of the compounds of the present invention (Vehicle). The Ki values were calculated from dose-response curves.
as §6

human recombinant dopamine D2 receptor, sequence (P14416 whole entry): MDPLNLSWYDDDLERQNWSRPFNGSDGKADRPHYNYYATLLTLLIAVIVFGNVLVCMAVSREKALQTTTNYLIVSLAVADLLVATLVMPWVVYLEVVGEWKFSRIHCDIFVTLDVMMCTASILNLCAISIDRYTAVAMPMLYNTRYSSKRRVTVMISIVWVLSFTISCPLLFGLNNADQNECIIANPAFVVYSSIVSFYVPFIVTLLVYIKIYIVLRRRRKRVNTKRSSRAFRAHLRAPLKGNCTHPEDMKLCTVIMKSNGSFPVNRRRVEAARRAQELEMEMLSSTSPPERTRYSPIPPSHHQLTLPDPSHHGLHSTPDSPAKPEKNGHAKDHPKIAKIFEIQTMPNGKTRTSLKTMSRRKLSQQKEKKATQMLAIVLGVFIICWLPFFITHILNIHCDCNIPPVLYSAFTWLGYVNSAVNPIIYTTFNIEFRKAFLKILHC

`Cc1cnc(CC(=O)N[C@H]2CC[C@H](CCN3CCc4nc(OCC(F)(F)F)sc4CC3)OC2)o1` [III-220]: the values for the Ki in assay [1] and in assay [2] were 0.78 nM and 1100 nM, respectively.
In the same order, the values of `Cc1cc2c(C(=O)N[C@H]3CC[C@H](CCN4CCc5ccc(OCC(F)(F)F)nc5CC4)OC3)cccn2n1` [III-228] are 0.16 nM and 330 nM.
Taken in the same sequence, the figures for `Cn1cc(CC(=O)N[C@H]2CC[C@H](CCN3CCc4ccc(OCC(F)(F)F)nc4CC3)OC2)cn1` [III-230] were 0.99 nM and 640 nM.
In the same order, the values of `Cc1ncc(CC(=O)N[C@H]2CC[C@H](CCN3CCc4ccc(OCC(F)(F)F)nc4CC3)OC2)o1` [III-231] are 0.7 nM and 490 nM.
For `Cc1cnc(CC(=O)N[C@H]2CC[C@H](CCN3CCc4ccc(OCC(F)(F)F)nc4CC3)OC2)o1` [III-234], the Ki in assay [1] was found to be 0.77 nM; in assay [2], 460 nM.
Take `CCN1Cc2c(C(=O)N[C@H]3CC[C@H](CCN4CCc5ccc(OCC(F)(F)F)nc5CC4)OC3)cccc2C1=O` [III-236]: the Ki in assay [1] was determined as 0.086 nM; in assay [2], 120 nM.
In the same order, the values of `Cn1cc2c(C(=O)N[C@H]3CC[C@H](CCN4CCc5nc(OC6CC(F)(F)C6)sc5CC4)CC3)cccc2n1` [III-244] are 0.24 nM and more than 1900 nM.
Taken in the same sequence, the figures for `Cn1cc2c(C(=O)N[C@H]3CC[C@H](C(O)CN4CCc5ccc(OCC(F)(F)F)nc5CC4)CC3)cccc2n1` (some centres unmarked) [III-248] were 1.6 nM and more than 1900 nM.
With `Cc1ncccc1C(=O)N[C@H]1CC[C@](F)(CCN2CCc3nc(OCC(F)(F)F)sc3CC2)CC1` [III-252], the values for the Ki in assay [1] and in assay [2] were 0.43 nM and 590 nM, respectively.
Taken in the same sequence, the figures for `Cc1nnc(CC(=O)N[C@H]2CC[C@](F)(CCN3CCc4nc(OCC(F)(F)F)sc4CC3)CC2)o1` [III-253] were 0.58 nM and 610 nM.
In the case of `Cc1ncc(OCC(=O)N[C@H]2CC[C@](F)(CCN3CCc4nc(OCC(F)(F)F)sc4CC3)CC2)cn1` [III-254], the Ki worked out at 0.43 nM in assay [1] and 570 nM in assay [2].
In the same order, the values of `Cc1cc(CC(=O)N[C@H]2CC[C@](F)(CCN3CCc4nc(OCC(F)(F)F)sc4CC3)CC2)no1` [III-255] are 0.67 nM and more than 1800 nM.
In the same order, the values of `Cn1cc(CC(=O)N[C@H]2CC[C@](F)(CCN3CCc4nc(OCC(F)(F)F)sc4CC3)CC2)cn1` [III-261] are 0.57 nM and 480 nM.
In the same order, the values of `Cc1ncc(CC(=O)N[C@H]2CC[C@](F)(CCN3CCc4nc(OCC(F)(F)F)sc4CC3)CC2)o1` [III-262] are 0.22 nM and 560 nM.
As for `Cc1nc(CC(=O)N[C@H]2CC[C@](F)(CCN3CCc4nc(OCC(F)(F)F)sc4CC3)CC2)no1` [III-264], the Ki was 0.25 nM in assay [1] and more than 1800 nM in assay [2].
In the same order, the values of `Cc1cnc(CC(=O)N[C@H]2CC[C@](F)(CCN3CCc4nc(OCC(F)(F)F)sc4CC3)CC2)o1` [III-266] are 0.15 nM and more than 1800 nM.
In the same order, the values of `Cn1cc(OCC(=O)N[C@H]2CC[C@](F)(CCN3CCc4nc(OCC(F)(F)F)sc4CC3)CC2)cn1` [III-268] are 0.39 nM and 340 nM.
Taken in the same sequence, the figures for `Cc1nnc(CC(=O)N[C@H]2CC[C@](F)(CCN3CCc4nc(OCC(F)(F)F)sc4CC3)CC2)s1` [III-269] were 0.36 nM and 290 nM.
Turning to `Cn1cc2ccc(C(=O)N[C@H]3CC[C@H](CCN4CCc5nc(OCC(F)F)sc5CC4)CC3)cc2n1` [III-270], the Ki came out at 0.6 nM in assay [1] and 1100 nM in assay [2].
Taken in the same sequence, the figures for `Cc1ncccc1C(=O)N[C@H]1CC[C@H](CCN2CCc3nc(OCC(F)F)sc3CC2)CC1` [III-271] were 1.2 nM and 1100 nM.
In the case of `Cc1nnc(CC(=O)N[C@H]2CC[C@H](CCN3CCc4nc(OCC(F)F)sc4CC3)CC2)o1` [III-273], the Ki in assay [1] was determined as 0.78 nM; in assay [2], 570 nM.
Taken in the same sequence, the figures for `Cc1ncc(/C=C/C(=O)N[C@H]2CC[C@H](CCN3CCc4nc(OCC(F)F)sc4CC3)CC2)s1` [III-274] were 0.12 nM and 140 nM.
